How the values were obtained:
Experiment in all cases: relative viability (nuclei count vs DMSO), 5 days (fraction); higher = more cells survive
AT-7519 + Navitoclax = compound: O=C(NC1CCNCC1)c1n[nH]cc1NC(=O)c1c(Cl)cccc1Cl [AT-7519] + CC1(C)CCC(c2ccc(Cl)cc2)=C(CN2CCN(c3ccc(C(=O)NS(=O)(=O)c4ccc(N[C@H](CCN5CCOCC5)CSc5ccccc5)c(S(=O)(=O)C(F)(F)F)c4)cc3)CC2)C1 [Navitoclax] (partner 0.5 µM)
Summary of the method: (§1)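 Lung cancer cell lines, seeded in 1536-well plates, were treated the following day by pin tool with a single drug or with five library-drug doses (not always all listed) in √10 steps on top of a fixed anchor-drug dose. Cells were fixed and nuclei stained in one step after 5 days, and nuclei were counted. Relative viability is the nuclei count for treated wells divided by that for vehicle wells, reported as medians of duplicate plates.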

[1] = compound: C1=CC2=C(C=C(C(=C2N=C1)O)N=NC3=CC4=C(C=C3)C=C(C=C4)S(=O)(=O)O)S(=O)(=O)O + N=C(N)NC(=N)NCCc1ccccc1 [Phenformin] (partner 250 µM)
Summary of the method: as §1

[2] = compound: C1=CC2=C(C=C(C(=C2N=C1)O)N=NC3=CC4=C(C=C3)C=C(C=C4)S(=O)(=O)O)S(=O)(=O)O + CC(=O)Nc1cccc(-n2c(=O)n(C3CC3)c(=O)c3c(Nc4ccc(I)cc4F)n(C)c(=O)c(C)c32)c1 [Trametinib] (partner 0.02 µM)
Summary of the method: as §1

[3] = compound: C1=CC2=C(C=C(C(=C2N=C1)O)N=NC3=CC4=C(C=C3)C=C(C=C4)S(=O)(=O)O)S(=O)(=O)O + Nc1ncn([C@H]2C[C@H](O)[C@@H](CO)O2)c(=O)n1 [Decitabine] (partner 2 µM)
Summary of the method: as §1

| Cell Line | relative viability (AT-7519 + Navitoclax; first compound 0.01 µM) | relative viability (AT-7519 + Navitoclax; first compound 0.03162 µM) | relative viability (AT-7519 + Navitoclax; first compound 0.3162 µM) | relative viability (AT-7519 + Navitoclax; first compound 1 µM) | relative viability ([1]; first compound 0.08 µM) | relative viability ([1]; first compound 0.253 µM) | relative viability ([1]; first compound 0.8 µM) | relative viability ([1]; first compound 2.53 µM) | relative viability ([1]; first compound 8 µM) | relative viability ([2]; first compound 0.08 µM) | relative viability ([2]; first compound 0.253 µM) | relative viability ([2]; first compound 0.8 µM) | relative viability ([2]; first compound 2.53 µM) | relative viability ([2]; first compound 8 µM) | relative viability ([3]; first compound 0.08 µM) | relative viability ([3]; first compound 0.253 µM) | relative viability ([3]; first compound 0.8 µM) | relative viability ([3]; first compound 2.53 µM) | relative viability ([3]; first compound 8 µM) |
| --- | --- | --- | --- | --- | --- | --- | --- | --- | --- | --- | --- | --- | --- | --- | --- | --- | --- | --- | --- |
| NCI-H596 | 1 | 1.06 | 0.951 | 0.637 | 0.749 | 0.735 | 0.697 | 0.841 | 0.759 | 0.939 | 0.751 | 0.77 | 0.795 | 0.681 | 1.1 | 0.954 | 1.01 | 1.02 | 1.38 |
| H3255 | 0.463 | 0.491 | 0.647 | 0.431 | 0.348 | 0.377 | 0.416 | 0.394 | 0.421 | 0.588 | 0.614 | 0.66 | 0.654 | 0.624 | 0.652 | 0.635 | 0.58 | 0.655 | 0.585 |
| NCI-H647 | 1.11 | 1.19 | 1.12 | 0.762 | 0.668 | 0.486 | 0.449 | 0.534 | 0.525 | 0.584 | 0.429 | 0.426 | 0.54 | 0.518 | 0.35 | 0.412 | 0.415 | 0.45 | 0.401 |
| NCI-H2023 | 1.1 | 0.938 | 0.847 | 0.323 | 0.393 | 0.394 | 0.432 | 0.376 | 0.379 | 0.527 | 0.58 | 0.558 | 0.589 | 0.637 | 0.24 | 0.243 | 0.258 | 0.24 | 0.19 |
| NCI-H23 | 0.858 | 0.622 | 1.02 | 0.461 | 0.869 | 0.805 | 0.694 | 0.786 | 0.83 | 0.39 | 0.319 | 0.392 | 0.443 | 0.346 | 0.331 | 0.304 | 0.335 | 0.311 | 0.302 |
| NCI-H1944 | 0.988 | 1.06 | 1.14 | 0.982 | 0.237 | 0.199 | 0.19 | 0.199 | 0.193 | 0.415 | 0.385 | 0.416 | 0.474 | 0.366 | 0.448 | 0.437 | 0.446 | 0.376 | 0.38 |
| NCI-H1793 | 0.352 | 0.416 | 0.313 | 0.365 | 0.416 | 0.416 | 0.346 | 0.442 | 0.379 | 0.53 | 0.387 | 0.452 | 0.347 | 0.348 | 0.527 | 0.521 | 0.409 | 0.47 | 0.49 |
| NCI-H520 | 1.14 | 0.991 | 0.986 | 0.605 | 0.493 | 0.496 | 0.585 | 0.321 | 0.727 | 0.784 | 0.6 | 0.768 | 0.625 | 0.807 | 0.525 | 0.519 | 0.542 | 0.468 | 0.508 |
| NCI-H460 | 0.965 | 1 | 0.932 | 0.0202 | 0.609 | 0.479 | 0.502 | 0.486 | 0.596 | 0.187 | 0.0935 | 0.138 | 0.141 | 0.169 | 0.506 | 0.487 | 0.501 | 0.497 | 0.387 |
| EKVX | 0.772 | 0.881 | 0.923 | 0.876 | 0.237 | 0.225 | 0.235 | 0.232 | 0.139 | 0.346 | 0.305 | 0.37 | 0.341 | 0.332 | 0.334 | 0.366 | 0.366 | 0.325 | 0.263 |
| EPLC-272H | 1.13 | 1.01 | 1.31 | 0.972 | 0.284 | 0.319 | 0.292 | 0.28 | 0.323 | 0.358 | 0.276 | 0.277 | 0.287 | 0.282 | 0.415 | 0.372 | 0.37 | 0.438 | 0.375 |
| NCI-H1395 | 1.62 | 1.17 | 1.03 | 0.831 | 0.442 | 0.405 | 0.473 | 0.45 | 0.452 | 1.07 | 1.02 | 1.02 | 0.911 | 1.02 | 0.724 | 0.734 | 0.737 | 0.714 | 0.691 |
| NCI-H2126 | 0.893 | 0.866 | 0.83 | 0.823 | 0.564 | 0.535 | 0.514 | 0.557 | 0.559 | 0.568 | 0.539 | 0.56 | 0.606 | 0.555 | 0.577 | 0.567 | 0.599 | 0.612 | 0.609 |
| LXF-289 | 0.984 | 1.07 | 1 | 0.917 | 0.54 | 0.511 | 0.509 | 0.485 | 0.507 | 0.718 | 0.682 | 0.638 | 0.679 | 0.62 | 0.412 | 0.383 | 0.395 | 0.371 | 0.31 |

Source: the supplement of paper PMC10307832
